{
  "source": "patent US5900488A",
  "about": "“Method for treating mycosis using imidazolylacetonitrile derivatives” (Nihon Nohyaku Co., Ltd., priority 1995, dated 1999)",
  "key": {"Aspergillus fumigatus": {"tested_on": "Aspergillus fumigatus", "experiment": "In vitro antifungal activity against Aspergillus fumigatus, MIC by twofold agar dilution (Test Example 4)", "format": "cell-based", "details": "read-out: MIC", "method": "MICs were determined by the twofold agar dilution method with casitone agar which constituted with 0.9% bactocasitone, 1% bacto-yeast extract, 2% glucose, 0.1% KH2 PO4, 0.1% Na2 HPO4, 1% Na3 C6 H5 O7 and 1.6% agar. A loopful of each inoculum (1×10^6 conidia/ml) was streaked onto the agar plate containing a compound, and a fungal growth was observed after incubation for 48 hours at 35° C. The MIC was determined as the lowest drug concentration which prevented a visible fungal growth."}, "Candida albicans": {"tested_on": "Candida albicans", "experiment": "In vitro antifungal activity against Candida albicans, MIC by twofold micro-broth dilution (Test Example 3)", "format": "cell-based", "method": "MICs were determined by the twofold micro-broth dilution method with RPMI 1640 buffered with morphorino-propanesulfonic acid to a final molarity of 0.165M (pH 7.0). One hundred μl of a yeast cell suspension (1 to 5×10^3 cells/ml) and 100 μl of the compound-containing medium were pipetted into each well flat-bottomed microtiter plates. After incubation for 48 hours at 35° C., the turbidity of each well was measured at 630 nm."}, "dermatophytes": {"tested_on": "dermatophytes", "experiment": "Antifungal activity against dermatophytes compared with racemic mixtures (general statement)", "details": "especially highly sensitive strains"}, "[1]": {"tested_on": "Trichophyton mentagrophytes", "experiment": "In vitro activity against Trichophyton mentagrophytes, MIC by twofold macro-broth dilution (Test Example 1)", "format": "cell-based", "details": "Trichophyton mentagrophytes, 7 days at 27° C.", "method": "(§1) Minimum inhibitory concentrations (MICs) were determined by the twofold macro-broth dilution method with Sabouraud's glucose broth which constituted with 1% bactopeptone and 4% glucose. To each tube containing 9.8 ml of the broth, 0.1 ml of each testing compound dissolved in DMSO and 0.1 ml of a conidial suspension (1×10^6 conidia/ml) were added. The fungal growth was observed after incubation for 7 days at 27° C. The MIC was determined as the lowest drug concentration which prevented a visible fungal growth."}, "Trichophyton rubrum": {"tested_on": "Trichophyton rubrum", "experiment": "In vitro activity against Trichophyton rubrum, MIC by twofold macro-broth dilution (Test Example 1)", "format": "cell-based", "method": "as §1"}},
  "note": "Like-named read-outs stand apart in the source and are kept apart here.",
  "data": [
    {"compound": "N#C/C(=C1/SC[C@@H](c2ccc(Cl)cc2Cl)S1)n1ccnc1", "note": "[Compound (B), R-(-)-(E)-[4-(2,4-dichlorophenyl)-1,3-dithiolan-2-ylidene]-1-imidazolylacetonitrile]", "values": [
      {"measurement": "MIC", "setting": "Aspergillus fumigatus; TIMM0063, strain TIMM 0063, 48 hours at 35° C.", "result": 0.00063, "unit": "µg/mL"},
      {"measurement": "MIC", "setting": "Aspergillus fumigatus; TIMM0078, strain TIMM 0078, 48 hours at 35° C.", "result": 0.00063, "unit": "µg/mL"},
      {"measurement": "MIC", "setting": "Aspergillus fumigatus; TIMM1728, strain TIMM 1728, 48 hours at 35° C.", "result": "≤ 0.00031", "unit": "µg/mL"},
      {"measurement": "MIC", "setting": "Aspergillus fumigatus; TIMM1767, strain TIMM 1767, 48 hours at 35° C.", "result": 0.00063, "unit": "µg/mL"},
      {"measurement": "MIC", "setting": "Candida albicans; IFO0197, strain IFO 0197, 80% inhibition, 48 hours at 35° C., pH 7.0, read-out: MIC", "result": 0.0625, "unit": "µg/mL"},
      {"measurement": "MIC", "setting": "Candida albicans; IFO0579, strain IFO 0579, 80% inhibition, 48 hours at 35° C., pH 7.0, read-out: MIC", "result": 0.0313, "unit": "µg/mL"},
      {"measurement": "MIC", "setting": "Candida albicans; IFO1269, strain IFO 1269, 80% inhibition, 48 hours at 35° C., pH 7.0, read-out: MIC", "result": 0.0625, "unit": "µg/mL"},
      {"measurement": "MIC", "setting": "Candida albicans; IFO1270, strain IFO 1270, 80% inhibition, 48 hours at 35° C., pH 7.0, read-out: MIC", "result": 0.25, "unit": "µg/mL"},
      {"measurement": "MIC", "setting": "Candida albicans; IFO1385, strain IFO 1385, 80% inhibition, 48 hours at 35° C., pH 7.0, read-out: MIC", "result": 0.0625, "unit": "µg/mL"},
      {"measurement": "MIC", "setting": "Candida albicans; IFO1386, strain IFO 1386, 80% inhibition, 48 hours at 35° C., pH 7.0, read-out: MIC", "result": 0.125, "unit": "µg/mL"},
      {"measurement": "MIC", "setting": "Candida albicans; TIMM3163, strain TIMM 3163, 80% inhibition, 48 hours at 35° C., pH 7.0, read-out: MIC", "result": 16, "unit": "µg/mL"},
      {"measurement": "MIC", "setting": "Candida albicans; TIMM3164, strain TIMM 3164, 80% inhibition, 48 hours at 35° C., pH 7.0, read-out: MIC", "result": 0.5, "unit": "µg/mL"},
      {"measurement": "MIC", "setting": "Candida albicans; TIMM3165, strain TIMM 3165, 80% inhibition, 48 hours at 35° C., pH 7.0, read-out: MIC", "result": 2, "unit": "µg/mL"},
      {"measurement": "MIC", "setting": "Candida albicans; TIMM3166, strain TIMM 3166, 80% inhibition, 48 hours at 35° C., pH 7.0, read-out: MIC", "result": 1, "unit": "µg/mL"},
      {"measurement": "antifungal activity relative to the racemic mixtures", "setting": "dermatophytes", "result": "several times"},
      {"measurement": "MIC", "setting": "[1]; IFO5466, 168 h, strain IFO 5466", "result": 0.02, "unit": "µg/mL"},
      {"measurement": "MIC", "setting": "[1]; IFO5809, 168 h, strain IFO 5809", "result": 0.005, "unit": "µg/mL"},
      {"measurement": "MIC", "setting": "[1]; IFO5810, 168 h, strain IFO 5810", "result": 0.005, "unit": "µg/mL"},
      {"measurement": "MIC", "setting": "[1]; IFO5811, 168 h, strain IFO 5811", "result": 0.01, "unit": "µg/mL"},
      {"measurement": "MIC", "setting": "[1]; IFO5929, 168 h, strain IFO 5929", "result": 0.01, "unit": "µg/mL"},
      {"measurement": "MIC", "setting": "[1]; TIMM1189, 168 h, strain TIMM 1189", "result": 0.01, "unit": "µg/mL"},
      {"measurement": "MIC", "setting": "[1]; TIMM1814, 168 h, strain TIMM 1814", "result": 0.02, "unit": "µg/mL"},
      {"measurement": "MIC", "setting": "[1]; TIMM1815, 168 h, strain TIMM 1815", "result": 0.02, "unit": "µg/mL"},
      {"measurement": "MIC", "setting": "[1]; TIMM1817, 168 h, strain TIMM 1817", "result": 0.01, "unit": "µg/mL"},
      {"measurement": "MIC", "setting": "[1]; TIMM2789, 168 h, strain TIMM 2789", "result": 0.0025, "unit": "µg/mL"},
      {"measurement": "sensitivity (in words)", "setting": "Trichophyton rubrum", "result": "highly sensitive"},
      {"measurement": "MIC", "setting": "Trichophyton rubrum; IFO5467, 168 h, strain IFO 5467, 7 days at 27° C.", "result": 0.0025, "unit": "µg/mL"},
      {"measurement": "MIC", "setting": "Trichophyton rubrum; IFO5807, 168 h, strain IFO 5807, 7 days at 27° C.", "result": 0.0025, "unit": "µg/mL"},
      {"measurement": "MIC", "setting": "Trichophyton rubrum; IFO5808, 168 h, strain IFO 5808, 7 days at 27° C.", "result": 0.0025, "unit": "µg/mL"},
      {"measurement": "MIC", "setting": "Trichophyton rubrum; IFO6203, 168 h, strain IFO 6203, 7 days at 27° C.", "result": 0.0013, "unit": "µg/mL"},
      {"measurement": "MIC", "setting": "Trichophyton rubrum; IFO6204, 168 h, strain IFO 6204, 7 days at 27° C.", "result": 0.0025, "unit": "µg/mL"},
      {"measurement": "MIC", "setting": "Trichophyton rubrum; IFO9185, 168 h, strain IFO 9185, 7 days at 27° C.", "result": 0.0013, "unit": "µg/mL"},
      {"measurement": "MIC", "setting": "Trichophyton rubrum; TIMM1822, 168 h, strain TIMM 1822, 7 days at 27° C.", "result": 0.00063, "unit": "µg/mL"},
      {"measurement": "MIC", "setting": "Trichophyton rubrum; TIMM1823, 168 h, strain TIMM 1823, 7 days at 27° C.", "result": 0.0013, "unit": "µg/mL"},
      {"measurement": "MIC", "setting": "Trichophyton rubrum; TIMM1824, 168 h, strain TIMM 1824, 7 days at 27° C.", "result": 0.0013, "unit": "µg/mL"},
      {"measurement": "MIC", "setting": "Trichophyton rubrum; TIMM1830, 168 h, strain TIMM 1830, 7 days at 27° C.", "result": 0.00063, "unit": "µg/mL"}
    ]},
    {"compound": "OC(Cn1cncn1)(Cn1cncn1)c1ccc(F)cc1F", "note": "[FCZ, 2(2,4-Difluorophenyl)-1,3-bis(1H-1,2,4-triazol-1-yl)-2-propanol]", "values": [
      {"measurement": "MIC", "setting": "Candida albicans; IFO0197, 48 h, pH 7", "result": 0.25, "unit": "µg/mL"},
      {"measurement": "MIC", "setting": "Candida albicans; IFO0579, 48 h, pH 7", "result": 0.125, "unit": "µg/mL"},
      {"measurement": "MIC", "setting": "Candida albicans; IFO1269, 48 h, pH 7", "result": 0.25, "unit": "µg/mL"},
      {"measurement": "MIC", "setting": "Candida albicans; IFO1270, 48 h, pH 7", "result": 0.25, "unit": "µg/mL"},
      {"measurement": "MIC", "setting": "Candida albicans; IFO1385, 48 h, pH 7", "result": 0.25, "unit": "µg/mL"},
      {"measurement": "MIC", "setting": "Candida albicans; IFO1386, 48 h, pH 7", "result": 0.5, "unit": "µg/mL"},
      {"measurement": "MIC", "setting": "Candida albicans; TIMM3163, 48 h, pH 7", "result": 16, "unit": "µg/mL"},
      {"measurement": "MIC", "setting": "Candida albicans; TIMM3164, 48 h, pH 7", "result": 2, "unit": "µg/mL"},
      {"measurement": "MIC", "setting": "Candida albicans; TIMM3165, 48 h, pH 7", "result": "> 32", "unit": "µg/mL"},
      {"measurement": "MIC", "setting": "Candida albicans; TIMM3166, 48 h, pH 7", "result": 8, "unit": "µg/mL"}
    ]}
  ]
}
